Reference: patent publication US20250042881A1, “CCR6 RECEPTOR MODULATORS” (Idorsia Pharmaceuticals Ltd, priority 2021, published 2025)

Biological target: T1, human CCR6 (Homo sapiens, UniProt P51684)
T1 construct: expressed in transfected cells; host or cells: HEK-293
T1 sequence (P51684 1-374): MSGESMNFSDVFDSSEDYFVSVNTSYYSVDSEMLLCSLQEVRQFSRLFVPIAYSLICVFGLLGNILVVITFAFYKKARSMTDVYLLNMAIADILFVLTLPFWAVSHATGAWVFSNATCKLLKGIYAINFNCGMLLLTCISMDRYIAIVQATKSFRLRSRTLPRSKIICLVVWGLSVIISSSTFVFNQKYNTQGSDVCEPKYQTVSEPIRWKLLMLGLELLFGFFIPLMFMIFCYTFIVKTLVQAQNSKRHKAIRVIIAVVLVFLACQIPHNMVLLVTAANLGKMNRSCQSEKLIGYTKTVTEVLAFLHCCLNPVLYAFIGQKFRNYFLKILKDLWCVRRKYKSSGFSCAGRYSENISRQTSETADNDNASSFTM
Test: FLIPR assay: inhibition of CCL20-induced calcium signal in HEK-293 cells expressing human CCR6
Type: cell-based
Conditions: engineered HEK-293 cells expressing human CCR6; agonist CCL20 10 nM; 30 min preincubation; Fluo-8-AM; mean values if determined several times
Method: FLIPR assay: The bioactivity of compounds is tested in a fluorometric imaging plate reader (FLIPR: Molecular Devices) using engineered HEK-293 cells expressing the human CCR6 (GenBank: AY242126). Frozen cells are plated on Poly-L-Lysine precoated 384-well plates 2 days prior to bioassay in DMEM medium supplemented with 10% FCS and 1% Penicillin-Streptomycin. At the day of bioassay, cell supernatant is discarded and cells are dye loaded for 30 minutes at room temperature in the dark with Fluo-8-AM (Focus Biomolecules) in Hanks Balanced Salt Solution (Gibco), buffered with 20 mM Hepes at pH 6.75 and supplemented with 0.05% BSA. This buffer, but lacking the dye, is also used for washing and compound dilution steps (assay buffer). Cells are washed free of excess dye with a wash-station (Biotek), leaving 40 microliter of assay buffer at the end. Cells were incubated for 15 minutes at room temperature in the dark, before adding compounds. Stock solutions of test compounds are made up at a concentration of 10 mM in DMSO, and serially diluted first in DMSO and then transferred in assay buffer to concentrations required for inhibition dose response curves. After a 45 minute incubation period in assay buffer at room temperature, 10 microliters of each compound dilution are transferred from a compound plate to the plate containing the recombinant cells in the FLIPR instrument according to the manufacturer's instructions. After cells and compounds were preincubated for 30 minutes at room temperature in the dark, 10 microliter agonist CCL20 (Peprotech) at a final concentration of 10 nM is added, again using the FLIPR instrument. Changes in fluorescence are monitored before and after addition of the test compounds and agonist. Emission peak values above base level after CCL20 addition are exported after base line subtraction. The calculated IC50 values may fluctuate depending on the daily assay performance. Fluctuations of this kind are known to those skilled in the art. In the case where IC50 values have been determined several times for the same compound, mean values are given.

Row | Structure (SMILES) | IC50
1 | CC(C)c1ccc([C@](O)(c2cncc(-c3nc(C4CCOCC4)n(C4CCCC4)n3)c2)C2(C)CN(C)C2)cc1 [Example 20, (R)-{5-[1-Cyclopentyl-5-(tetrahydro-pyran-4-yl)-1H-[1,2,4]triazol-3-yl]-pyridin-3-yl}-(1,3-dimethyl-azetidin-3-yl)-(4-isopropyl-phenyl)-methanol] | 37.3 nM
2 | CC(C)c1ccc([C@](O)(c2cncc(-c3nc(C4CCOCC4)n(C(C)(C)C)n3)c2)C2(C)CN(C)C2)cc1 [Example 21, (R)-{5-[1-tert-Butyl-5-(tetrahydro-pyran-4-yl)-1H-[1,2,4]triazol-3-yl]-pyridin-3-yl}-(1,3-dimethyl-azetidin-3-yl)-(4-isopropyl-phenyl)-methanol] | 39.9 nM
3 | CC(C)c1ccc([C@](O)(c2cncc(-c3nc(C4CCOCC4)n(CC(C)(F)F)n3)c2)C2(C)CN(C)C2)cc1 [Example 22, (R)-{5-[1-(2,2-Difluoro-propyl)-5-(tetrahydro-pyran-4-yl)-1H-[1,2,4]triazol-3-yl]-pyridin-3-yl}-(1,3-dimethyl-azetidin-3-yl)-(4-isopropyl-phenyl)-methanol] | 81.6 nM
4 | CC(C)c1ccc([C@](O)(c2cncc(-c3nc(C4CCOCC4)n(C4CCC4)n3)c2)C2(C)CN(C)C2)cc1 [Example 23, (R)-{5-[1-Cyclobutyl-5-(tetrahydro-pyran-4-yl)-1H-[1,2,4]triazol-3-yl]-pyridin-3-yl}-(1,3-dimethyl-azetidin-3-yl)-(4-isopropyl-phenyl)-methanol] | 57.8 nM
5 | CC(C)c1ccc([C@](O)(c2cncc(-c3nc(-c4cccnc4)n(C4CC4)n3)c2)C2(C)CN(C)C2)cc1 [Example 24, (R)-[5-(1-Cyclopropyl-5-pyridin-3-yl-1H-[1,2,4]triazol-3-yl)-pyridin-3-yl]-(1,3-dimethyl-azetidin-3-yl)-(4-isopropyl-phenyl)-methanol] | 50.1 nM
6 | CN1CC(C)([C@](O)(c2ccc(C3CC3)cc2)c2cncc(-c3nc(C4CCOCC4)n(C4CC4)n3)c2)C1 [Example 25, (R)-(4-Cyclopropyl-phenyl)-{5-[1-cyclopropyl-5-(tetrahydro-pyran-4-yl)-1H-[1,2,4]triazol-3-yl]-pyridin-3-yl}-(1,3-dimethyl-azetidin-3-yl)-methanol] | 163 nM
7 | CC(C)c1ccc([C@](O)(c2cncc(-c3nc(C(C)(C)O)n(C4CC4)n3)c2)C2(C)CN(C)C2)cc1 [Example 26, 2-(2-Cyclopropyl-5-{5-[(R)-(1,3-dimethyl-azetidin-3-yl)-hydroxy-(4-isopropyl-phenyl)-methyl]-pyridin-3-yl}-2H-[1,2,4]triazol-3-yl)-propan-2-ol] | 46.4 nM
8 | CC(C)c1ccc([C@](O)(c2cncc(-c3nc(C(C)(C)O)n(C(C)C)n3)c2)C2(C)CN(C)C2)cc1 [Example 27, 2-(5-{5-[(R)-(1,3-Dimethyl-azetidin-3-yl)-hydroxy-(4-isopropyl-phenyl)-methyl]-pyridin-3-yl}-2-isopropyl-2H-[1,2,4]triazol-3-yl)-propan-2-ol] | 59.5 nM
9 | CC(C)c1ccc([C@](O)(c2cncc(-c3nc(C45CC(CO)(C4)C5)n(C4CC4)n3)c2)C2(C)CN(C)C2)cc1 [Example 28, (R)-{5-[1-Cyclopropyl-5-(3-hydroxymethyl-bicyclo[1.1.1]pent-1-yl)-1H-[1,2,4]triazol-3-yl]-pyridin-3-yl}-(1,3-dimethyl-azetidin-3-yl)-(4-isopropyl-phenyl)-methanol] | 61.1 nM
10 | CC(C)c1ccc([C@](O)(c2cncc(-c3nc(C45CC(CO)(C4)C5)n(C(C)C)n3)c2)C2(C)CN(C)C2)cc1 [Example 29, (R)-(1,3-Dimethyl-azetidin-3-yl)-{5-[5-(3-hydroxymethyl-bicyclo[1.1.1]pent-1-yl)-1-isopropyl-1H-[1,2,4]triazol-3-yl]-pyridin-3-yl}-(4-isopropyl-phenyl)-methanol] | 78.7 nM
11 | CC(C)c1ccc([C@](O)(c2cncc(-c3nc(C4(O)CCOCC4)n(C4CC4)n3)c2)C2(C)CN(C)C2)cc1 [Example 30, 4-(2-Cyclopropyl-5-{5-[(R)-(1,3-dimethyl-azetidin-3-yl)-hydroxy-(4-isopropyl-phenyl)-methyl]-pyridin-3-yl}-2H-[1,2,4]triazol-3-yl)-tetrahydro-pyran-4-ol] | 98.1 nM
12 | CC(C)c1ccc([C@](O)(c2cncc(-c3nc(C4(O)CCOCC4)n(C(C)C)n3)c2)C2(C)CN(C)C2)cc1 [Example 31, 4-(5-{5-[(R)-(1,3-Dimethyl-azetidin-3-yl)-hydroxy-(4-isopropyl-phenyl)-methyl]-pyridin-3-yl}-2-isopropyl-2H-[1,2,4]triazol-3-yl)-tetrahydro-pyran-4-ol] | 86.3 nM
13 | CC(=O)N1CCC(c2nc(-c3cncc([C@@](O)(c4ccc(C(C)C)cc4)C4(C)CN(C)C4)c3)nn2C2CC2)CC1 [Example 32, 1-[4-(2-Cyclopropyl-5-{5-[(R)-(1,3-dimethyl-azetidin-3-yl)-hydroxy-(4-isopropyl-phenyl)-methyl]-pyridin-3-yl}-2H-[1,2,4]triazol-3-yl)-piperidin-1-yl]-ethanone] | 181 nM
14 | CC(=O)N1CCC(c2nc(-c3cncc([C@@](O)(c4ccc(C(C)C)cc4)C4(C)CN(C)C4)c3)nn2C(C)C)CC1 [Example 33, 1-[4-(5-{5-[(R)-(1,3-Dimethyl-azetidin-3-yl)-hydroxy-(4-isopropyl-phenyl)-methyl]-pyridin-3-yl}-2-isopropyl-2H-[1,2,4]triazol-3-yl)-piperidin-1-yl]-ethanone] | 182 nM
15 | CC(C)c1ccc([C@](O)(c2cncc(-c3nc(C4CCOCC4)n(C4CC4)n3)c2)C2(C)CN(C(C)C)C2)cc1 [Example 34, (R)-{5-[1-Cyclopropyl-5-(tetrahydro-pyran-4-yl)-1H-[1,2,4]triazol-3-yl]-pyridin-3-yl}-(1-isopropyl-3-methyl-azetidin-3-yl)-(4-isopropyl-phenyl)-methanol] | 63.8 nM
16 | CC(C)c1ccc([C@](O)(c2cncc(-c3nc(C4CCOCC4)n(C4CC4)n3)c2)C2(C)CN(CC(F)F)C2)cc1 [Example 35, (R)-{5-[1-Cyclopropyl-5-(tetrahydro-pyran-4-yl)-1H-[1,2,4]triazol-3-yl]-pyridin-3-yl}-[1-(2,2-difluoro-ethyl)-3-methyl-azetidin-3-yl]-(4-isopropyl-phenyl)-methanol] | 72.6 nM
17 | CC(C)c1ccc([C@](O)(c2cncc(-c3nc(C4CCOCC4)n(C4CC4)n3)c2)C2(C)CN(CCO)C2)cc1 [Example 36, 2-{3-[(R)-{5-[1-Cyclopropyl-5-(tetrahydro-pyran-4-yl)-1H-[1,2,4]triazol-3-yl]-pyridin-3-yl}-hydroxy-(4-isopropyl-phenyl)-methyl]-3-methyl-azetidin-1-yl}-ethanol] | 116 nM
18 | CC(C)c1ccc([C@](O)(c2cncc(-c3nc(C(C)(C)O)n(C4CC4)n3)c2)C2(C)CNC2)cc1 [Example 37, 2-(2-Cyclopropyl-5-{5-[(R)-hydroxy-(4-isopropyl-phenyl)-(3-methyl-azetidin-3-yl)-methyl]-pyridin-3-yl}-2H-[1,2,4]triazol-3-yl)-propan-2-ol] | 104 nM
19 | CC(C)c1ccc([C@](O)(c2cncc(-c3nc(C4CCOCC4)n(C4CC4)n3)c2)C2(C)CN(C)C2)cc1F [Example 38, (R)-{5-[1-Cyclopropyl-5-(tetrahydro-pyran-4-yl)-1H-[1,2,4]triazol-3-yl]-pyridin-3-yl}-(1,3-dimethyl-azetidin-3-yl)-(3-fluoro-4-isopropyl-phenyl)-methanol] | 78.1 nM
20 | CC(C)c1ccc([C@](O)(c2cnc(F)c(-c3nc([C@H]4CC[C@H](O)CC4)n(C4CC4)n3)c2)C2(C)CN(C)C2)cc1 [Example 39, 4-(2-Cyclopropyl-5-{5-[(R)-(1,3-dimethyl-azetidin-3-yl)-hydroxy-(4-isopropyl-phenyl)-methyl]-2-fluoro-pyridin-3-yl}-2H-[1,2,4]triazol-3-yl)-trans-cyclohexanol] | 76.6 nM
21 | Cc1ncc([C@@](O)(c2ccc(C(C)C)cc2)C2(C)CN(C)C2)cc1-c1nc([C@H]2CC[C@H](O)CC2)n(C2CC2)n1 [Example 40, 4-(2-Cyclopropyl-5-{5-[(R)-(1,3-dimethyl-azetidin-3-yl)-hydroxy-(4-isopropyl-phenyl)-methyl]-2-methyl-pyridin-3-yl}-2H-[1,2,4]triazol-3-yl)-trans-cyclohexanol] | 202 nM
